From the NIST ThermoML archive (doi:10.1016/j.jct.2017.03.033)

Assay: molar heat capacity at constant pressure
Conditions: Liquid, Flow calorimetry

CC(C)C [2-methylpropane]
Conditions	molar heat capacity at constant pressure [J/K/mol]
303.53 K, 1050 kPa	142.52
303.55 K, 1540 kPa	141.88
303.56 K, 2000 kPa	141.53
303.56 K, 3020 kPa	140.13
303.57 K, 2500 kPa	140.83
303.59 K, 9990 kPa	135.77
303.62 K, 4030 kPa	139.55
303.62 K, 4500 kPa	139.32
303.62 K, 6500 kPa	138.1
303.62 K, 7990 kPa	136.88
303.63 K, 6010 kPa	138.45
303.63 K, 7030 kPa	137.69
303.63 K, 7530 kPa	137.34
303.63 K, 8510 kPa	136.7
303.63 K, 9510 kPa	136.24
303.64 K, 5000 kPa	139.03
303.64 K, 9000 kPa	136.47
303.65 K, 5520 kPa	138.8
303.7 K, 3480 kPa	139.78
303.82 K, 11510 kPa	134.38
303.82 K, 12000 kPa	134.2
303.86 K, 10530 kPa	135.37
303.86 K, 11040 kPa	134.96
313.48 K, 1040 kPa	142.81
313.48 K, 6480 kPa	138.39
313.49 K, 3020 kPa	141.12
313.49 K, 7500 kPa	138.1
313.5 K, 5530 kPa	139.09
313.5 K, 6030 kPa	138.56
313.5 K, 7030 kPa	138.27
313.5 K, 8040 kPa	137.81
313.5 K, 8480 kPa	137.69
313.51 K, 1540 kPa	142.46
313.51 K, 2020 kPa	141.93
313.51 K, 2540 kPa	141.53
313.51 K, 4010 kPa	140.6
313.51 K, 9020 kPa	137.52
313.52 K, 4500 kPa	140.07
313.52 K, 9480 kPa	137.34
313.52 K, 10060 kPa	137.28
313.54 K, 5080 kPa	139.26
313.55 K, 10530 kPa	136.59
313.57 K, 11480 kPa	136.3
313.57 K, 12050 kPa	136.12
313.58 K, 3550 kPa	140.95
313.58 K, 11070 kPa	136.47
323.11 K, 1040 kPa	146.53
323.16 K, 1510 kPa	146.24
323.22 K, 2020 kPa	145.77
323.23 K, 3510 kPa	144.03
323.24 K, 2540 kPa	145.01
323.25 K, 3020 kPa	144.49
323.25 K, 4020 kPa	143.62
323.27 K, 10500 kPa	139.49
323.28 K, 4550 kPa	143.33
323.28 K, 10980 kPa	139.44
323.3 K, 4970 kPa	143.04
323.31 K, 11540 kPa	139.38
323.32 K, 5500 kPa	142.69
323.32 K, 5980 kPa	142.17
323.33 K, 6470 kPa	141.7
323.33 K, 7020 kPa	141.3
323.34 K, 11990 kPa	139.2
323.35 K, 7470 kPa	141.24
323.37 K, 7990 kPa	141
323.37 K, 9480 kPa	140.07
323.38 K, 8510 kPa	140.77
323.38 K, 9990 kPa	139.67
323.39 K, 9000 kPa	140.42
333.64 K, 1050 kPa	151.06
333.65 K, 10550 kPa	143.33
333.65 K, 10920 kPa	143.21
333.66 K, 5960 kPa	145.65
333.66 K, 11520 kPa	143.15
333.67 K, 4020 kPa	147.05
333.67 K, 4480 kPa	146.76
333.67 K, 9460 kPa	143.5
333.67 K, 11930 kPa	143.15
333.68 K, 10010 kPa	143.62
333.69 K, 1530 kPa	150.48
333.69 K, 5010 kPa	146.41
333.69 K, 7030 kPa	145.31
333.7 K, 5530 kPa	146.12
333.7 K, 6520 kPa	145.54
333.71 K, 3530 kPa	147.63
333.71 K, 8510 kPa	144.43
333.72 K, 2020 kPa	149.84
333.72 K, 2520 kPa	149.2
333.72 K, 8970 kPa	144.38
333.73 K, 3050 kPa	148.79
333.73 K, 7550 kPa	145.13
333.74 K, 8040 kPa	145.13
343.71 K, 1520 kPa	159.49
343.76 K, 2030 kPa	157.92
343.79 K, 3510 kPa	155.13
343.81 K, 2530 kPa	157.34
343.81 K, 3030 kPa	155.65
343.83 K, 4010 kPa	154.02
343.84 K, 5010 kPa	153.09
343.85 K, 4530 kPa	153.62
343.85 K, 6000 kPa	151.06
343.85 K, 7500 kPa	149.49
343.85 K, 8000 kPa	148.27
343.85 K, 8500 kPa	147.98
343.85 K, 10990 kPa	145.77
343.85 K, 12010 kPa	145.07
343.86 K, 5490 kPa	151.93
343.86 K, 6530 kPa	150.36
343.86 K, 10020 kPa	146.82
343.86 K, 11480 kPa	145.48
343.87 K, 9000 kPa	147.51
343.87 K, 10510 kPa	146.47
343.88 K, 7020 kPa	150.07
343.88 K, 9490 kPa	147.4
353.82 K, 2510 kPa	163.9
353.85 K, 3020 kPa	162.57
353.85 K, 9000 kPa	152.16
353.85 K, 9500 kPa	151.7
353.86 K, 4510 kPa	158.62
353.87 K, 4990 kPa	158.09
353.87 K, 6010 kPa	156.06
353.87 K, 7000 kPa	153.97
353.87 K, 8520 kPa	152.22
353.87 K, 10000 kPa	151.35
353.87 K, 10510 kPa	151
